Read-outs that look alike come from different tables or passages of the source.
Key:
[1] = Pharmacokinetics in serum and brain of mice (LC-MS); type: in vivo, mouse; conditions: for half-life: mouse
Description: The pharmacokinetics of candidate compounds were assayed in serum and brain of mice. Wild-type C57B6 mice are injected with a single IP dose of a candidate compound, e.g., Y-27632 at 10 mg/kg. Pairs of animals are sacrificed at various time points and serum and brain samples were obtained for LC-MS analysis of drug levels. Plots of serum concentration vs. time and brain concentration vs. time are used to analyze, e.g., penetration of the blood/brain barrier, drug kinetics, and t1/2.
Wild-type C57B6 mice were treated with a single 10 mg/kg dose of Y-27632 by IP injection. Pairs of animals were sacrificed at various time points and serum and brain samples were obtained for LC-MS analysis of Y-27632 levels. […] The initial rapid fall in serum concentration is likely due to tissue re-distribution. […] Values represent the average from two mice; error bars represent the range.

[2] = tested on: ARN127(65)CFP/YFP; assay: FRET-based assay of polyglutamine (AR) aggregation, limited chemical screen and dose-response; type: cell-based, human
Description: For experiments in the fluorescence plate reader, high-throughput screening, and detergent fractionation, HEK293 cells in 6-well plates were transfected with a total of 2 μg of DNA using 10 μL Plus™ and 12 μL Lipofectamine™ according to manufacturer's protocol. To control for autofluorescence and light scattering by mammalian cells, a control group was transfected with 2 μg pcDNA3. To control for bleedthrough and crossover excitation, CFP and YFP controls were transfected with 1 μg pECFP-C1 (Clontech) and 1 μg pcDNA3 (Invitrogen) or 1 μg pEYFP-C1 (Clontech) and 1 μg pcDNA3 respectively. After 5 hours, cells were counted and plated into optically clear 96-well plates (Costar™ 3603) at a density of 60,000 cells/well. […] For assays of rho-GTPase mutants, 1 μg of each was used in conjunction with 1 μg of the polyglutamine expression plasmids. Transfections were performed in triplicate, and each experiment was repeated 6 times. C17-2 neural precursor cells were plated in 12-well plates and transfected using 4 μg of DNA and 4 μl of Lipofectamine 2000™. […] In C17-2 cells polyglutamine protein was visualized by direct fluorescence; neuron-specific tubulin was visualized by immunostaining with mouse monoclonal antibody Neuro TUJ1 (Covance) at 1:1000. […]

[3] = tested on: AR(122)-C17.2 cells; assay: Cell model of full length AR cytopathology (surviving neurons after 6 days of differentiation); type: cell-based, mouse; conditions: 50 μM
Description: (§1) Immortalized cell lines were created expressing full-length AR that differentiated in vitro into cells that resemble CNS neurons. C17.2 cells were used, developed by Evan Snyder, M. D., Ph.D. which are a transformed mouse neural precursor cell line that retain the ability to engraft and differentiate into CNS neurons and glia when implanted into fetal mouse brain (Snyder et al. 1192 Cell 68:33-51). In their undifferentiated form these cells may be propagated and easily transfected in vitro. However, upon serum starvation, addition of growth factor (NGF 100 ng/ml), and mitomycin (100 ng/ml) they differentiate into cells that have many features of CNS neurons, including axons, dendrites, and expression of neuron-specific markers.
(§2) C17.2 cell lines were created that stably expressed full-length HA-tagged forms of AR (25, 66, 103, or 122 glutamines). These AR(n)-C17.2 cell lines recapitulate several important aspects of SBMA, including proteolytic cleavage, and nuclear inclusion formation (data not shown). […] After six days of differentiation, AR(25)-C17.2 cells cultured with or without DHT readily formed neuron-like cells, expressing neural markers and extending long axonal processes. […]

[4] = tested on: Transgenic flies harboring htt exon 1 (Q93); assay: Drosophila model of htt exon 1 neurodegeneration (rhabdomeres per ommatidium); type: in vivo; conditions: 25 μM in food, seven days post-eclosion, p<0.0003 by ANOVA
Description: Transgenic flies were used, harboring a human huntingtin exon 1 fragment with 93 glutamines (htt exon 1 (Q93)) that is expressed in all fly neurons under the control of the elav:Gal4 driver.
Flies were treated by maintaining adults on food containing candidate compound (e.g., 25 μM Y-27632) or no drug supplement. The number of rhabdomeres in treated vs. untreated flies were analyzed seven days post-eclosion by the pseudopupil technique as described (Steffan et al., (2001). Nature 413, 739-743). Approximately 50-60 ommatidia were analyzed for rhabdomere content on each of 10-12 flies from each treatment group, and the average number of rhabdomeres per ommatidium in each individual was determined. Percent rhabdomere loss was calculated as 100×((7−average number remaining)/7) before and after treatment.
The therapeutic effect of Y-27632 in a Drosophila model of polyglutamine neurodegenerative disease was tested. Following eclosion, adult flies expressing the transgene were grown for seven days in the presence or absence of 25 μM Y-27632 in their food and rhabdomeres were counted at seven days. […] Thus, in addition to reducing polyglutamine aggregation in mammalian cells, Y-27632 is neuroprotective in this Drosophila model of polyglutamine protein toxicity.

[5] = tested on: full-length AR; assay: Western blot of full-length AR levels in stable C17.2 neural cell lines; type: cell-based; conditions: 50 μM, with or without 100 nM DHT, FIG. 6A
Description: as §1, §2

[6] = biological target: T1, htt(72)CFP/YFP (Homo sapiens, UniProt P42858, INS38QQQQQQQQQQQQQQQQQQQQQQQQQQQQQQQQQQQQQQQQQQQQQQQQQQQ); assay: FRET based assay of htt aggregation; type: cell-based; conditions: FIG. 3A
T1 construct: htt exon 1 fragment derived from plasmid qp72; expressed in transfected cells; host or cells: HEK293
T1 sequence (P42858 with tags, fused parts or gaps, stated change not applied): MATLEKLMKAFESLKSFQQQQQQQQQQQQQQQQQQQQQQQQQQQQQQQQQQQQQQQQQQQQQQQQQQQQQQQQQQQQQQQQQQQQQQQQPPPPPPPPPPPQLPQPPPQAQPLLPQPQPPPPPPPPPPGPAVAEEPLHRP
Description: Aggregation of htt was monitored using the FPR FRET based HTS described herein for assaying aggregation of AR, using plasmids with htt exon 1-CFP and -YFP fusions containing 72 repeats (htt(72)CFP/YFP). HEK293 cells were transfected with htt(72)CFP/YFP as above, and cells were plated into a 96-well dish in the presence or absence of various concentrations of test compounds. After 24 hours, cells were fixed in 4% paraformaldehyde, and FRET signal was determined from the cell monolayers by reading on the FPR.

[7] = C57B6 mice, single 10 mg/kg dose IP

Structure (SMILES): C[C@@H](N)C1CCC(C(=O)Nc2ccncc2)CC1 (stereo partly shown) [Compound Y-27632]
- serum:brain ratio ([1]; C57B6, mouse, in vivo, ip, 10 mg/kg): approximately 6:1
- bioavailability [1, 7]: excellent bioavailability
- brain concentration, peak [1, 7]: ≈ 500 nM
- serum concentration, spike [1, 7]: approximately 3.5 μM
- half-life ([1]; serum and brain, C57B6 mice, single 10 mg/kg dose IP, read-out: t1/2 of clearance from serum and brain (first-order kinetics)): ~1 h
- half-life ([1]; serum, C57B6 mice, single 10 mg/kg dose IP, read-out: t1/2 of clearance from serum): ~1 h
- decrease of FRET (polyglutamine protein aggregation) ([2]; HEK293, ARN127(65)CFP/YFP and GRΔ, 100 nM dex, 48 hours): 40%
- EC50 ([2]; dose-response analysis, FRET, FIG. 3B, read-out: EC50 for the effect on polyglutamine aggregation): ~5 µM
- increase in number of surviving AR(122)-C17.2 neurons [3]: 100%
- effect on AR(25)-C17.2 cells ([3]; data not shown): without affecting AR(25)-C17.2 cells
- rhabdomere loss prevented [4]: 29%
- AR steady-state levels [5]: reduced the AR steady-state levels
- aggregation of htt exon 1-CFP and -YFP fusions containing 72 repeats [6]: inhibited aggregation
